In paper PMC9500072, “Topical application of an irreversible small molecule inhibitor of lysyl oxidases ameliorates skin scarring and fibrosis” (Nature Communications, 2022):
Where a chain is given by its changes, count along the chain named. Several values for one entry are separate records, joined by “and”; a condition that tells them apart may be missing. Equal entries are not always repeated. Where two headings read alike, the source gives them in different places.

Columns and labels:
Type in all cases: biochemical
Recombinant human LOXL1 = biological target: T1, Recombinant human LOXL1 (Homo sapiens, UniProt Q08397); assay: Amplex Red oxidation assay, LOXL1 inhibition
T1 construct: made in house
T1 sequence (Q08397 96-574): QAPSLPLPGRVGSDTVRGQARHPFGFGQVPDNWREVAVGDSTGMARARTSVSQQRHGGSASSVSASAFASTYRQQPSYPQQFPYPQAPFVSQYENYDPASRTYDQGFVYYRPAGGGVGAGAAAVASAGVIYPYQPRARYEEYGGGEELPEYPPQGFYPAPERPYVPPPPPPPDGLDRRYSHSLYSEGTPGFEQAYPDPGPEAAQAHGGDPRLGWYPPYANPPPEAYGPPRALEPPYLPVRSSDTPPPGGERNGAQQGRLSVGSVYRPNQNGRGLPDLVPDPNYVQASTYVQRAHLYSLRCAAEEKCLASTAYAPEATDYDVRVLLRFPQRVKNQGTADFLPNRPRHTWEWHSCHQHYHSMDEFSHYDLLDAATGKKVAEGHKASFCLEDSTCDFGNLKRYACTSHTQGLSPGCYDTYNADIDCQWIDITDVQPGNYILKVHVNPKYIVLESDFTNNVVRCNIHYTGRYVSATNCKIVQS
Method: (§1) The measurement of the enzymatic activity of all lysyl oxidase family members was based on the detection of hydrogen peroxide with an Amplex-Red oxidation assay, as previously described; miniaturized in 384 well formats, with the appropriate combination of substrate and assay buffer for each individual enzyme. After a 30 min pre-incubation of the enzyme at 37 °C with the test compound (or with different incubation times for the time-dependency assay), one volume of reaction mixture containing 120 μM Amplex Red (AR) (Life Technologies), 1.5 U/mL horseradish peroxidase (HRP) (Sigma-Aldrich) and the specific substrate was added to each sample. The relative fluorescence units (RFU) were then measured every 2.5 min for 30 min at 37 °C, excitation 565 nm and emission 590, on a BMG Clariostar Microplate Reader. All the substrates were used at concentrations corresponding to their Km towards the corresponding enzyme, or with a range of different concentrations for the substrate competition experiments.
(§2) Lysyl oxidases assay buffer contained 1.2 M urea, 50 mM sodium borate buffer, pH 8.2 and 100 µM β-aminoproprionitrile (BAPN, Sigma-Aldrich) was used for low control.
Recombinant human LOXL1 was expressed and purified from cDNA (GeneArt) and 10 mM putrescine was used as substrate. Recombinant human and mouse LOXL2 (R&D Systems) were challenged with 5 mM putrescine (Sigma-Aldrich) as the substrate. Rat and dog recombinant LOXL2 were amplified and purified in house from HEK-293 clones kindly provided by Dr. Fernando Rodríguez Pascual, Madrid University, and used in the same conditions as for the human form. 2 mM putrescine was used as the substrate for recombinant human LOXL3 (R&D Systems) and LOXL4 (Dr. Fernando Rodríguez Pascual, university of Madrid, Spain) assays.

Human Fibroblast LOX = biological target: T2, Human Fibroblast LOX (Homo sapiens, UniProt P28300); assay: Amine oxidase inhibition profile, human fibroblast LOX
T2 construct: Fibroblast LOX; endogenous in cells; host or cells: human fibroblasts
T2 sequence (P28300 169-417): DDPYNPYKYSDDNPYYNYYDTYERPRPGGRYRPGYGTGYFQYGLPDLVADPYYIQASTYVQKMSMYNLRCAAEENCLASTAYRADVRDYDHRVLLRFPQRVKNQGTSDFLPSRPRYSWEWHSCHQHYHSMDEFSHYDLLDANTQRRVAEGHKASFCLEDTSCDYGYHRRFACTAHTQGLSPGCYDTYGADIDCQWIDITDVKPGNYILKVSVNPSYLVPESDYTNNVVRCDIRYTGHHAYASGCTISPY
Method: as §1, §2
(§3) Supplem entary Materi als:
(§4) Supplementary Table S1: Amine oxidase inhibition profile of PXS -4787, PXS-6302 and
(§5) Supplementary Table S2: Perm eability profile of PXS -6302.

Human Recombinant MAO-B = biological target: T3, Human Recombinant MAO-B (Homo sapiens, UniProt P27338); assay: Amine oxidase inhibition profile, MAO-B
T3 sequence (P27338 1-520): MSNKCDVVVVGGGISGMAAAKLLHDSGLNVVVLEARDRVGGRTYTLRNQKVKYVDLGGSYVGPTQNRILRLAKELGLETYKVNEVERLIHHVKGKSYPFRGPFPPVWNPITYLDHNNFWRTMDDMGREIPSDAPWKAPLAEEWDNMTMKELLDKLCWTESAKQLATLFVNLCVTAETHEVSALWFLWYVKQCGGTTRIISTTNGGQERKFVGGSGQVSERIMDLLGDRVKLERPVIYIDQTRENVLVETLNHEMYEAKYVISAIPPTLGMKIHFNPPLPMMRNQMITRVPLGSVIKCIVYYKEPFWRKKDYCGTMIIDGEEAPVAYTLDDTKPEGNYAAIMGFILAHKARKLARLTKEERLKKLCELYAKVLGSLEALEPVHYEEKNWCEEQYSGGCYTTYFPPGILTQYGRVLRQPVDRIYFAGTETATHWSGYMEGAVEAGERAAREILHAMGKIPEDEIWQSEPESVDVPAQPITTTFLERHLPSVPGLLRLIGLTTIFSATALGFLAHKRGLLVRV
Description: as §3, §4, §5

Rat Fibroblast LOX = biological target: T4, Rat Fibroblast LOX (Rattus norvegicus, UniProt P16636); assay: Amine oxidase inhibition profile, rat fibroblast LOX
T4 construct: Fibroblast LOX; endogenous in cells; host or cells: rat fibroblasts
T4 sequence (P16636 163-411): T2 sequence (P28300 169-417) with P27S, G29S, Y31H, A49P, T80S, N142S, G188A, K202Q, T224S, D231E
Method: as §1, §2, §3, §4, §5

[1] = 30 min pre-incubation, read-out: rh LOXL1 IC50
[2] = read-out: Human Fibroblast LOX IC50
[3] = read-out: Recombinant MAO-B IC50
[4] = read-out: Human Recombinant LOXL1 pIC50±SD (converted)

With N#CCCN [BAPN, β-aminoproprionitrile, reference compound] the “Human Recombinant LOXL1 pIC50±SD” value (Recombinant human LOXL1) was 5.6 ± 0.1, the IC50 (Recombinant human LOXL1; [1]) was 2.46 µM and the “Human Fibroblast LOX pIC50±SD” value (Human Fibroblast LOX) was 5.5 ± 0.1. For the same compound, the IC50 (Human Fibroblast LOX; [2]) was 3.04 µM, the “Recombinant MAO-B pIC50” value (Human Recombinant MAO-B) was < 4 and the IC50 (Human Recombinant MAO-B; [3]) was > 100 µM. For the same compound, the IC50 (Rat Fibroblast LOX) was 2.12 µM and the “Rat Fibroblast LOX pIC50±SD” value (Rat Fibroblast LOX) was 5.7 ± 0.1.

For NC/C=C(\F)CS(=O)(=O)c1ccccc1 [PXS-4787], the IC50 (Recombinant human LOXL1; [1]) was 3 µM and 3.23 µM, the inhibition at 30 µM (Recombinant human LOXL1; log conc -4.5229, read-out: Fig 2A inhibition (mean)) was 97.5% and the inhibition at 10 µM (Recombinant human LOXL1; log conc -5, read-out: Fig 2A inhibition (mean)) was 84.7%. The inhibition at 3.333 µM (Recombinant human LOXL1; log conc -5.4771, read-out: Fig 2A inhibition (mean)) was 56.4%, the inhibition at 1.111 µM (Recombinant human LOXL1; log conc -5.9542, read-out: Fig 2A inhibition (mean)) was 26.9% and the inhibition at 0.3704 µM (Recombinant human LOXL1; log conc -6.4313, read-out: Fig 2A inhibition (mean)) was 13.6%. It also gave an inhibition at 0.1235 µM (Recombinant human LOXL1; log conc -6.9083, read-out: Fig 2A inhibition (mean)) of 6.04%, an inhibition at 0.0412 µM (Recombinant human LOXL1; log conc -7.3851, read-out: Fig 2A inhibition (mean)) of 2.88% and an inhibition at 0.0137 µM (Recombinant human LOXL1; log conc -7.8633, read-out: Fig 2A inhibition (mean)) of 3.87%. The inhibition at 0.0046 µM (Recombinant human LOXL1; log conc -8.3372, read-out: Fig 2A inhibition (mean)) was 0.808%, the inhibition at […] (Recombinant human LOXL1; log conc -8.8239, read-out: Fig 2A inhibition (mean)) was -1.89% and the inhibition at 0.0005 µM (Recombinant human LOXL1; log conc -9.301, read-out: Fig 2A inhibition (mean)) was 1.05%. The IC50 (Recombinant human LOXL1; [4]) was 3.16 µM, the IC50 (Human Fibroblast LOX; [2]) was 5.19 µM and the IC50 (Human Recombinant MAO-B; [3]) was > 100 µM. For the same compound, the IC50 (Rat Fibroblast LOX) was 4.57 µM.

With NC/C=C(\F)C(F)(F)S(=O)(=O)c1ccccc1 [PXS-6302] the IC50 (Recombinant human LOXL1; [1]) was 3.42 µM, the IC50 (Recombinant human LOXL1; [4]) was 3.16 µM and the IC50 (Human Fibroblast LOX; [2]) was 4.51 µM. The IC50 (Human Fibroblast LOX; read-out: Human Fibroblast LOX pIC50±SD (converted)) was 3.98 µM, the IC50 (Human Recombinant MAO-B) was > 30 µM and the IC50 (Rat Fibroblast LOX) was 8.57 µM.
